Measured values published in publication PMC4823997 (Journal of medicinal chemistry, 2015).
Like-named read-outs stand apart in the source and are kept apart here. Blank lines part the entries; values can stand above or below the compound they belong to.

What was measured:
HIV-1 IIIB = assay: Luciferase activity assay of HIV-1 infectivity in TZM-bl cells; assay type: cell-based; conditions: read-out: Anti-HIV EC50
hCXCR4 = hCXCR4 (Homo sapiens, UniProt P61073); assay: Radioligand [125I]SDF-1α binding to hCXCR4-transfected HEK293 membrane; conditions: for fold increase in CXCR4 binding affinity compared to compound 4: relative to compound 4; for fold decrease in CXCR4 binding affinity compared to compound 18: relative to compound 18; for fold decrease in CXCR4 binding compared to compound 25: relative to compound 25
Cytotoxicity assay [1] = assay type: cell-based, human; conditions: human, CEM cells (T-lymphoblast leukemia)
Cytotoxicity assay [2] = assay type: cell-based; conditions: human, TZM-bl cells
CEM cells = assay: Cytotoxicity assay; assay type: cell-based, human; conditions: for CC50: read-out: Cytotoxicity CC50 CEM, CEM cells, 72 h
TZM-bl cells = assay: Cytotoxicity assay; assay type: cell-based; conditions: for CC50: read-out: Cytotoxicity CC50 TZM-bl, TZM-bl cells, 72 h
[3] = TZM-bl cells, HIV-1 IIIB, M.O.I. 1

Chain of hCXCR4 (P61073 whole entry): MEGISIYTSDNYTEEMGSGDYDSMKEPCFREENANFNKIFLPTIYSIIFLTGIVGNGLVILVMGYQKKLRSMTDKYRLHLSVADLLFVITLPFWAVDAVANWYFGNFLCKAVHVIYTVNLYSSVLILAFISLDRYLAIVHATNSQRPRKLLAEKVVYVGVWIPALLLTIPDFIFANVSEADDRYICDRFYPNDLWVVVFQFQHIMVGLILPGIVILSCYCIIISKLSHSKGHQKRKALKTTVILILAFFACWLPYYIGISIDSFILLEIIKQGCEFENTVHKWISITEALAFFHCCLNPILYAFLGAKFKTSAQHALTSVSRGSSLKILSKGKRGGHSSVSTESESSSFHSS

Compound: c1cc(CN2CCCNCCNCCCNCC2)ccc1CN1CCCNCCNCCCNCC1 [AMD3100, reference compound]
EC50 (HIV-1 IIIB; Human immunodeficiency virus 1, IIIB, TZM-bl): 0.0666 ± 0.0231 µM

Compound: COc1ccc2nc(NCc3ccc(CNCCCNC4CCCCC4)cc3)nc(NC3CCNCC3)c2c1 [Compound 9, N^2-{4-[(3-Cyclohexylamino-propylamino)-methyl]-benzyl}-6-methoxy-N^4-piperidin-4-yl-quinazoline-2,4-diamine]
fold increase in CXCR4 binding affinity compared to compound 4 (hCXCR4): 4−5 fold
CC50 at 72 h (Cytotoxicity assay [1]): 8 ± 1.7 µM
selectivity ratio at 72 h (Cytotoxicity assay [1]): 169
CC50 at 72 h (Cytotoxicity assay [2]): 8.4 ± 1 µM
selectivity ratio at 72 h (Cytotoxicity assay [2]): 177

Compound: COc1ccc2c(NC3CCNCC3)nc(NCc3ccc(CNCCCNC4CCCCC4)cc3)nc2c1 [Compound 10, N^2-{4-[(3-Cyclohexylamino-propylamino)-methyl]-benzyl}-7-methoxy-N^4-piperidin-4-yl-quinazoline-2,4-diamine]
fold increase in CXCR4 binding affinity compared to compound 4 (hCXCR4): 4−5 fold
CC50 at 72 h (Cytotoxicity assay [1]): 1.6 ± 0.6 µM
selectivity ratio at 72 h (Cytotoxicity assay [1]): 186
CC50 at 72 h (Cytotoxicity assay [2]): 10.8 ± 3.3 µM
selectivity ratio at 72 h (Cytotoxicity assay [2]): 1260

Compound: COc1cc2nc(NCc3ccc(CNCCCNC4CCCCC4)cc3)nc(NC3CCNCC3)c2cc1OC [Compound 11, N^2-{4-[(3-Cyclohexylamino-propylamino)-methyl]-benzyl}-6,7-dimethoxy-N^4-piperidin-4-yl-quinazoline-2,4-diamine]
CC50 at 72 h (Cytotoxicity assay [1]): 17.5 ± 2.4 µM
selectivity ratio at 72 h (Cytotoxicity assay [1]): 806
CC50 at 72 h (Cytotoxicity assay [2]): 23.1 ± 7 µM
selectivity ratio at 72 h (Cytotoxicity assay [2]): 1060

Compound: COc1ccc2nc(NCc3ccc(CNCCCNC4CCCCCC4)cc3)nc(NC3CCNCC3)c2c1 [Compound 12, N^2-{4-[(3-Cycloheptylamino-propylamino)-methyl]-benzyl}-6-methoxy-N^4-piperidin-4-yl-quinazoline-2,4-diamine]
fold increase in CXCR4 binding affinity compared to compound 4 (hCXCR4): 4−5 fold
CC50 at 72 h (Cytotoxicity assay [1]): 6.5 ± 1.1 µM
selectivity ratio at 72 h (Cytotoxicity assay [1]): 153
CC50 at 72 h (Cytotoxicity assay [2]): 21.7 ± 7 µM
selectivity ratio at 72 h (Cytotoxicity assay [2]): 509

Compound: COc1ccc2c(NC3CCNCC3)nc(NCc3ccc(CNCCCNC4CCCCCC4)cc3)nc2c1 [Compound 13, N^2-{4-[(3-Cycloheptylamino-propylamino)-methyl]-benzyl}-7-methoxy-N^4-piperidin-4-yl-quinazoline-2,4-diamine]
fold increase in CXCR4 binding affinity compared to compound 4 (hCXCR4): 4−5 fold
CC50 at 72 h (Cytotoxicity assay [1]): 6.1 ± 1.1 µM
selectivity ratio at 72 h (Cytotoxicity assay [1]): 134
CC50 at 72 h (Cytotoxicity assay [2]): 10.8 ± 0.8 µM
selectivity ratio at 72 h (Cytotoxicity assay [2]): 238

Compound: COc1cc2nc(NCc3ccc(CNCCCNC4CCCCCC4)cc3)nc(NC3CCNCC3)c2cc1OC [Compound 14, N^2-{4-[(3-Cycloheptylamino-propylamino)-methyl]-benzyl}-6,7-methoxy-N^4-piperidin-4-yl-quinazoline-2,4-diamine]
EC50 (HIV-1 IIIB; [3]): 0.0484 ± 0.0034 µM
Selective Index CC50/EC50 CEM (CEM cells): 376
CC50 (CEM cells): 18.2 ± 4.5 µM
Selective Index CC50/EC50 TZM-bl (TZM-bl cells): 399
CC50 (TZM-bl cells): 19.3 ± 0.88 µM

Compound: COc1ccc2nc(NCc3ccc(CNCCCN4CCCCC4)cc3)nc(NC3CCNCC3)c2c1 [Compound 15, 6-Methoxy-N^4-piperidin-4-yl-N^2-{4-[(3-piperidin-1-yl-propy-lamino)-methyl]-benzyl}-quinazoline-2,4-diamine]
EC50 (HIV-1 IIIB; [3]): 0.0939 ± 0.0147 µM
Selective Index CC50/EC50 CEM (CEM cells): 196
CC50 (CEM cells): 18.4 ± 5.5 µM
Selective Index CC50/EC50 TZM-bl (TZM-bl cells): 261
CC50 (TZM-bl cells): 24.5 ± 2.5 µM

Compound: COc1ccc2c(NC3CCNCC3)nc(NCc3ccc(CNCCCN4CCCCC4)cc3)nc2c1 [Compound 16, 7-Methoxy-N^4-piperidin-4-yl-N^2-{4-[(3-piperidin-1-yl-propy-lamino)-methyl]-benzyl}-quinazoline-2,4-diamine]
EC50 (HIV-1 IIIB; [3]): 0.027 ± 0.0042 µM
Selective Index CC50/EC50 CEM (CEM cells): 511
CC50 (CEM cells): 13.8 ± 1.9 µM
Selective Index CC50/EC50 TZM-bl (TZM-bl cells): 1193
CC50 (TZM-bl cells): 32.2 ± 0.2 µM

Compound: COc1cc2nc(NCc3ccc(CNCCCN4CCCCC4)cc3)nc(NC3CCNCC3)c2cc1OC [Compound 17, 6,7-Dimethoxy-N^4-piperidin-4-yl-N^2-{4-[(3-piperidin-1-yl-propylamino)-methyl]-benzyl}-quinazoline-2,4-diamine]
CC50 at 72 h (Cytotoxicity assay [1]): 17.6 ± 3 µM
selectivity ratio at 72 h (Cytotoxicity assay [1]): 672
CC50 at 72 h (Cytotoxicity assay [2]): 28.1 ± 1.5 µM
selectivity ratio at 72 h (Cytotoxicity assay [2]): 1070

Compound: c1nc2c(NCc3ccc(CNCCCNC4CCCCC4)cc3)nc(N3CCNCC3)nc2[nH]1 [Compound 18, N-Cyclohexyl-N′-{4-[(2-piperazin-1-yl-9H-purin-6-ylamino)-methyl]-benzyl}-propane-1,3-diamine]
CC50 at 72 h (Cytotoxicity assay [1]): > 50 µM
selectivity ratio at 72 h (Cytotoxicity assay [1]): > 25000
CC50 at 72 h (Cytotoxicity assay [2]): > 50 µM
selectivity ratio at 72 h (Cytotoxicity assay [2]): > 25000

Further lines, with some results ahead:

fold decrease in CXCR4 binding affinity compared to compound 18 (hCXCR4): 4−5 fold
Compound: Cn1cnc2c(NCc3ccc(CNCCCNC4CCCCC4)cc3)nc(N3CCNCC3)nc21 [Compound 19, N-Cyclohexyl-N′-{4-[(9-methyl-2-piperazin-1-yl-9H-purin-6-ylamino)-methyl]-benzyl}-propane-1,3-diamine]
CC50 at 72 h (Cytotoxicity assay [1]): 20.2 ± 1.5 µM
selectivity ratio at 72 h (Cytotoxicity assay [1]): 5940
CC50 at 72 h (Cytotoxicity assay [2]): 18.6 ± 2 µM
selectivity ratio at 72 h (Cytotoxicity assay [2]): 5470

fold decrease in CXCR4 binding affinity compared to compound 18 (hCXCR4): 4−5 fold
Compound: CN1CCN(c2nc(NCc3ccc(CNCCCNC4CCCCC4)cc3)c3ncn(C)c3n2)CC1 [Compound 20, N-Cyclohexyl-N′-(4-{[9-methyl-2-(4-methyl-piperazin-1-yl)-9H-purin-6-ylamino]-methyl}-benzyl)-propane-1,3-diamine]
CC50 at 72 h (Cytotoxicity assay [1]): 13.8 ± 1.8 µM
selectivity ratio at 72 h (Cytotoxicity assay [1]): 2120
CC50 at 72 h (Cytotoxicity assay [2]): 11.2 ± 2.1 µM
selectivity ratio at 72 h (Cytotoxicity assay [2]): 1720

fold decrease in CXCR4 binding affinity compared to compound 18 (hCXCR4): 2−3 fold
Compound: c1nc2c(NCc3ccc(CNCCCNC4CCCCC4)cc3)nc(N3CCC(C4CCNCC4)CC3)nc2[nH]1 [Compound 21, N-{4-[(2-[4,4′]Bipiperidinyl-1-yl-9H-purin-6-ylamino)-methyl]-benzyl}-N′-cyclohexyl-propane-1,3-diamine]
CC50 at 72 h (Cytotoxicity assay [1]): > 50 µM
selectivity ratio at 72 h (Cytotoxicity assay [1]): > 593
CC50 at 72 h (Cytotoxicity assay [2]): > 50 µM
selectivity ratio at 72 h (Cytotoxicity assay [2]): > 593

fold decrease in CXCR4 binding affinity compared to compound 18 (hCXCR4): 2 fold
Compound: c1nc2c(NCc3ccc(CNCCCNC4CCCCC4)cn3)nc(N3CCNCC3)nc2[nH]1 [Compound 22, N-Cyclohexyl-N′-{6-[(2-piperazin-1-yl-9H-purin-6-ylamino)-methyl]-pyridin-3-ylmethyl}-propane-1,3-diamine]
CC50 at 72 h (Cytotoxicity assay [1]): > 50 µM
selectivity ratio at 72 h (Cytotoxicity assay [1]): > 11900
CC50 at 72 h (Cytotoxicity assay [2]): > 50 µM
selectivity ratio at 72 h (Cytotoxicity assay [2]): > 11900

fold decrease in CXCR4 binding affinity compared to compound 18 (hCXCR4): around 2 fold
EC50 (HIV-1 IIIB; [3]): 0.0031 ± 0.0007 µM
Compound: c1nc2c(NCCc3ccc(CNCCCNC4CCCCC4)cc3)nc(N3CCNCC3)nc2[nH]1 [Compound 23, N-Cyclohexyl-N′-{4-[2-(2-piperazin-1-yl-9H-purin-6-ylami-no)-ethyl]-benzyl}-propane-1,3-diamine]
Selective Index CC50/EC50 CEM (CEM cells): 15065
CC50 (CEM cells): 46.7 ± 3.2 µM
Selective Index CC50/EC50 TZM-bl (TZM-bl cells): >16129
CC50 (TZM-bl cells): > 50 µM

fold decrease in CXCR4 binding compared to compound 25 (hCXCR4): 4−10 fold
Compound: c1cc(CNCCCNC2CCCCC2)nc(CNc2nc(N3CCNCC3)nc3[nH]cnc23)c1 [Compound 26, N-Cyclohexyl-N′-{6-[(2-piperazin-1-yl-9H-purin-6-ylamino)-methyl]-pyridin-2-ylmethyl}-propane-1,3-diamine]
CC50 at 72 h (Cytotoxicity assay [1]): > 50 µM
selectivity ratio at 72 h (Cytotoxicity assay [1]): > 20000
CC50 at 72 h (Cytotoxicity assay [2]): > 50 µM
selectivity ratio at 72 h (Cytotoxicity assay [2]): > 20000

fold decrease in CXCR4 binding compared to compound 25 (hCXCR4): 4−10 fold
Compound: c1nc2c(NCc3cncc(CNCCCNC4CCCCC4)c3)nc(N3CCNCC3)nc2[nH]1 [Compound 27, N-Cyclohexyl-N′-{5-[(2-piperazin-1-yl-9H-purin-6-ylamino)-methyl]-pyridin-3-ylmethyl}-propane-1,3-diamine]
CC50 at 72 h (Cytotoxicity assay [1]): > 50 µM
selectivity ratio at 72 h (Cytotoxicity assay [1]): > 8770
CC50 at 72 h (Cytotoxicity assay [2]): > 50 µM
selectivity ratio at 72 h (Cytotoxicity assay [2]): > 8770

EC50 (HIV-1 IIIB; [3]): > 0.07 µM
Compound: CC1(C)CN2C(CSC(=NC3CCCCC3)NC3CCCCC3)=CSC2=N1 [IT1t, reference compound]
